From PMC4550478, “Metronidazole-triazole conjugates: Activity against Clostridium difficile and parasites” (European Journal of Medicinal Chemistry, 2015) come the findings set out here.

Assay [1] deals with C. difficile NAP1/027 M7404. The experiment in a line: MIC broth microdilution, C. difficile NAP1/027 M7404. Type of assay: cell-based, Clostridium difficile. The conditions noted are these: Clostridioides difficile, NAP1/027M7404; NAP1/027 (footnote d: M7404), MtzS, 24 h, median of at least n = 4. As for the experimental part:
All compounds were tested for activity against a set of anaerobic C. difficile bacteria (630 ATCC BAA-1382, NAP1/027 M7404, NAP1/027 ATCC BAA-1803, VPI10463 ATCC 43255, CD26A54_S and CD26A54_R) and representative ESKAPE pathogens S. aureus (MRSA ATCC 43300), E. coli (ATCC 25922), K. pneumoniae (ATCC 700603), A. baumannii (ATCC 19606) and P. aeruginosa (ATCC 27853) using a standard broth microdilution assay. Selected compounds were tested for activity against H. pylori strains (26695, and clinical isolates MtzS 13/25, MtzR 98/285 and MtzR 13/61) using agar plate dilution, and for antimicrobial activity against […] Gram-positive bacterial strains: Enterococcus faecalis (VanA clinical isolate), Enterococcus faecium (MDR VanA ATCC 51559), Streptococcus pneumoniae (MDR ATCC 700677), S. aureus (MRSA ATCC 43300, MRSA clinical isolate, MRSA/DRSA clinical isolate, GISA NARSA NRS 1, GISA NARSA NRS 17, VRSA NARSA VRS1, VRSA NARSA VRS4 and VRSA NARSA VRS10) using broth microdilution. C. difficile strains were grown at 37 °C in a COY anaerobic chamber (5% H2, 10% CO2, 85% N2). H. pylori strains were grown at 37 °C under a microaerobic atmosphere (5% O2, 10% CO2). All facultative anaerobic bacteria were grown at 37 °C with normal atmospheric oxygen levels. All experiments were performed in duplicate with metronidazole, vancomycin, linezolid or colistin as positive controls for relevant strains (see Table 1). Positive growth control of bacteria and DMSO as well as a negative control of only media were included for every plate. Full assay details are provided in the supplementary information.
C. difficile ATCC BAA-1382, ATCC BAA-1803, ATCC 43255 and M7404 heat shocked spore stocks (10 µL) were transferred into the anaerobic chamber and 10 µL streaked onto pre-reduced (at least 2.5 hr in anaerobic chamber) BHIS agar plates supplemented with 0.1% w/v sodium taurocholate (BHIS(TA)). Plates were incubated for 24 hours prior to assay to give colonies of size 1-3mm diameter with characteristic uneven borders.
The minimum inhibition concentration was determined according to the CLSI Methods with modifications in broth and inoculum for C. difficile according to Babakhani et al.^7,8 Briefly, compounds were prepared to 20X final concentration in 100% water, 60% DMSO and 40% water or 60% DMSO and 40% media. The compounds along with standard antibiotics were serially diluted two-fold across the wells of 96-well non-binding surface plates (Non binding surface, Corning). The plates were placed in the anaerobic chamber overnight to reduce. C. difficile bacteria from BHIS(TA) agar plates were cultured anaerobically in BHIS at 37 °C overnight. A sample of culture was then diluted 40-fold in BHIS broth and incubated at 37 °C for approximately 4.5 hrs. The resultant mid-log phase culture (OD600= 0.5-0.6) was diluted to the final concentration of ~1×10^6 CFU/mL, then 50 µL was added to each well of the compound-containing 96-well plates. This gave final cell concentration of 5×10^5 CFU/mL, final volume 100 µL and 3% maximum DMSO concentration. Compound concentration was typically from 64 to 0.03 µg/mL. An antibiotic standard was included on each 96 well plate as well as a positive growth control (no compound) and sterility control (no bacteria). All the plates were covered and incubated at 37 °C for 24 h. MICs were the lowest concentration showing no visible growth.
A general note: Broth dilution looks for growth in wells or tubes with falling amounts of substance.

Assay [2] has as its system E. histolytica HM1:IMSS trophozoites. The experiment in a line: ATP-bioluminescence growth and survival assay, E. histolytica. Type of assay: cell-based, Entamoeba histolytica. The conditions noted are these: Entamoeba histolytica; MtzS, 48 h, anaerobic, n = 3. The procedure: (§1) Compounds were tested for antiparasitic activity against E. histolytica (HM1:1MSS strain) and G. lamblia (WB, BRIS/87/HEPU/713 (713), BRIS/83/HEPU/106 (106) and the metronidazole resistant syngeneic line 713-M3 [[15,16]]) using an ATP-bioluminescence based screen for cell growth and survival [[17,18]]. Assay plates were inoculated with trophozoites (5 × 10^3 parasites/well) and incubated in the GasPak™ EZ Anaerobe Gas Generating Pouch Systems (VWR, West Chester, PA) to maintain anaerobic conditions throughout the incubation period. The assays were performed in triplicate using the CellTiter-Glo Luminescent Cell Viability Assay. Metronidazole was used as a positive control.
(§2) Trophozoites of E. histolytica strain HM1:IMSS and G. lamblia strains WB, BRIS/87/HEPU/713 (713),^10 BRIS/83/HEPU/106 (106)^11 and the metronidazole resistant syngenic line 713-M3^10,11 were axenically maintained in TYI-S-33 medium supplemented with penicillin (100 U/ml), streptomycin (100 µg/ml).^12 E. histolytica and G. lamblia trophozoites were counted using a particle counter (Beckman Coulter, Fullerton, CA). All experiments were performed using trophozoites harvested during the logarithmic phase of growth.
(§3) A three-fold serial dilution was then performed yielding a concentration range 0.25-625 µM. From this dilution plate, 4 µL were transferred into the 96-well screen plates followed by addition of 96 µL of trophozoites (5,000 parasites) to yield a final 8-point concentration range spanning 0.01- 25 µM. Assay plates were incubated for 48 h at 37 °C in the GasPak^TM EZ Anaerobe Gas Generating Pouch Systems (VWR, West Chester, PA) to maintain anaerobic condition throughout the incubation period. The assays were performed in triplicate using the CellTiter-Glo Luminescent Cell Viability Assay.^13

Assay [3] has as its system G. lamblia WB trophozoites. Briefly: ATP-bioluminescence growth and survival assay, G. lamblia WB. Type of assay: cell-based, Giardia lamblia. The conditions noted are these: Giardia duodenalis; MtzS, 48 h, anaerobic, n = 3. The procedure:
as §1, §2, §3

Assay [4] deals with C. difficile NAP1/027 CD26A54_S. Briefly: MIC broth microdilution, C. difficile CD26A54_S. Type of assay: cell-based, Clostridium difficile. The conditions noted are these: Clostridioides difficile.
For assay [5], the system named is G. lamblia 713-M3 (713M). Briefly: ATP-bioluminescence growth and survival assay, metronidazole resistant G. lamblia 713-M3. In kind it is cell-based. To be noted: Giardia duodenalis, read-out: EC50 G. lamblia 713M. As for the experimental part: as §1, §2, §3
Assay [6] concerns G. lamblia BRIS/87/HEPU/713 (713). The experiment in a line: ATP-bioluminescence growth and survival assay, G. lamblia 713. To be noted: Giardia duodenalis, read-out: EC50 G. lamblia 713. In kind it is cell-based. As for the experimental part:
as §1, §2, §3

The test system of assay [7] is C. difficile NAP1/027 CD26A54_R. Briefly: MIC broth microdilution, metronidazole resistant C. difficile CD26A54_R. In kind it is cell-based, Clostridium difficile. To be noted: Clostridioides difficile.
The mark [8] stands for this setting: 24 hr incubation, read-out: MIC C. difficile NAP1/027 CD26A54_S 24 hr.
[9] abbreviates: CD26A54_S, MtzS (intermediary), 48 h growth, read-out: MIC C. difficile NAP1/027 CD26A54_S 48 h.
[10] abbreviates: 24 hr incubation, read-out: MIC C. difficile NAP1/027 CD26A54_R 24 hr.
Setting [11] is: CD26A54_R, MtzR, 48 h growth, BHIS broth, n = 8, read-out: MIC C. difficile NAP1/027 CD26A54_R 48 h.

Molecules are shown by their SMILES. ≈ marks a conversion by molar mass, not a printed value. Where two headings read alike, the source gives them in different places.

Regarding `Cc1ncc([N+](=O)[O-])n1CCn1cc(-c2ccc(Cl)cc2)nn1` [Compound 4c, 1-(2-(2-methyl-5-nitro-1H-imidazol-1-yl)ethyl)-4-(4-chlorophenyl)-1H-1,2,3-triazole], the MIC in assay [1] is 0.25 µg/mL (≈ 0.751 µM); in assay [4] (setting [8]), 1 to 2 µg/mL (≈ 3.01 to 6.01 µM); in assay [4] (setting [9]) it was 2 µg/mL (≈ 6.01 µM); in assay [7] (setting [10]) it was 8 µg/mL (≈ 24 µM); in assay [7] (setting [11]), 16 µg/mL (≈ 48.1 µM). Further, the EC50 (as a rule, the concentration needed to bring the measured effect to its halfway point) in assay [2] is 3600 nM; in assay [3], 200 nM; in assay [5], 3500 nM; in assay [6] it was 1200 nM.
On to `Cc1ncc([N+](=O)[O-])n1CCn1cc(-c2ccccn2)nn1` [Compound 4h, 1-(2-(2-methyl-5-nitro-1H-imidazol-1-yl)ethyl)-4-(2-pyridinyl)-1H-1,2,3-triazole.xTFA], for which the MIC came out at 0.5 µg/mL in assay [1]; 1 µg/mL in assay [4] (setting [8]); 1 µg/mL in assay [4] (setting [9]); 2 µg/mL in assay [7] (setting [10]); 4 µg/mL in assay [7] (setting [11]). Moreover, the EC50 is 4600 nM in assay [2], 740 nM in assay [3], 950 nM in assay [5] and 280 nM in assay [6].
Turning to `Cc1ncc([N+](=O)[O-])n1CCn1cc(Cc2ccccc2)nn1` [Compound 4k, 1-(2-(2-methyl-5-nitro-1H-imidazol-1-yl)ethyl)-4-benzyl-1H-1,2,3-triazole], the MIC was 0.5 µg/mL (≈ 1.6 µM) in assay [1]; 1 µg/mL (≈ 3.2 µM) in assay [4] (setting [8]); 1 µg/mL (≈ 3.2 µM) in assay [4] (setting [9]); 2 µg/mL (≈ 6.4 µM) in assay [7] (setting [10]); 4 µg/mL (≈ 12.8 µM) in assay [7] (setting [11]). Further, the EC50 in assay [2] came out at 1900 nM; in assay [3] it was 700 nM; in assay [5] it was 1100 nM; in assay [6], 320 nM.
